The test system of assay [1] is HeLa. The assay can be described thus: Percent inhibition of growth of human cervical carcinoma (HeLa) cells in culture at 5 micro g/mL of the compound. Type of assay: functional.
Assay [2] has as its system HeLa. The assay can be described thus: Percent inhibition of growth of human cervical carcinoma (HeLa) cells in culture at 10 micro g/mL of the compound. Format: functional.
Assay [3] in a line: Inhibition against cytidine diphosphate reductase activity in calf thymus. Type of assay: tissue-based, Bos taurus.
In assay [4] the test system is HeLa. The assay can be described thus: Percent inhibition of growth of human cervical carcinoma (HeLa) cells in culture at 50 micro g/mL of the compound. Type of assay: functional.
For assay [5], the system named is HeLa. The assay can be described thus: Percent inhibition of growth of human cervical carcinoma (HeLa) cells in culture at 2.5 micro g/mL of the compound. Type of assay: functional.
The test system of assay [6] is HeLa. The assay can be described thus: Percent inhibition of growth of human cervical carcinoma (HeLa) cells in culture at 25 micro g/mL of the compound. Format: functional.
Assay [7] relates to HeLa. The assay can be described thus: Percent inhibition of growth of human cervical carcinoma (HeLa) cells in culture at 100 micro g/mL of the compound. Type of assay: functional.
The test system of assay [8] is HeLa. The assay can be described thus: Percent inhibition of growth of human cervical carcinoma (HeLa) cells in culture at 200 micro g/mL of the compound. Format: functional.
For assay [9], the system named is HeLa. The assay can be described thus: Percent inhibition of growth of human cervical carcinoma (HeLa) cells in culture at 0.1 micro g/mL of the compound. Type of assay: functional.
For assay [10], the system named is HeLa. The assay can be described thus: Percent inhibition of growth of human cervical carcinoma (HeLa) cells in culture at 1 micro g/mL of the compound. Format: functional.

Where “and” joins values, the source holds several entries; their conditions need not be identical. Equal values may be shown once.

As a reminder, the Inhibition is the change of the read-out against control, counted positive when it falls. A high value points to strong suppression. As a reminder, the IC50 is the point on the concentration scale where inhibition reaches its midpoint. A low value points to inhibition by little substance. Consider `O=C(NO)C(OCCO)n1cc(F)c(=O)[nH]c1=O` (centres undefined), for which the Inhibition with HeLa [1] was determined as 40%; with HeLa [2] it was 66%; in the assay on HeLa [4], 80%; in the assay on HeLa [5], 16.5%; in the assay with HeLa [6] it was 75%. Also, inhibition in assay [3] was half-maximal at 1400 µM (IC50).

For the molecule `O=C(NO)C(OCCO)n1ccc(=O)[nH]c1=O` (centres undefined), the Inhibition in the assay on HeLa [7] was determined as 47%; in the assay with HeLa [4], 13%; in the assay with HeLa [8], 97%; in the assay with HeLa [6], 19%. This molecule also gave a half-inhibitory concentration (IC50) in assay [3] of 2200 µM.

`Nc1ccn(C(OCCO)C(=O)NO)c(=O)n1` (centres undefined) registered an IC50 in assay [3] of 4900 µM. Moreover, the Inhibition with HeLa [8] is on record as 0%.

For `O=c1[nH]cc(F)c(=O)[nH]1` [FLUOROURACIL], the Inhibition in the assay with HeLa [1] is 34.3%; in the assay with HeLa [9], 19%; in the assay on HeLa [2], 63.5% and 70%; in the assay on HeLa [4], 90%; in the assay with HeLa [10] it was 55%; with HeLa [6], 77%.

For the molecule `NC(=O)NO` [HYDROXYUREA], the Inhibition in the assay with HeLa [1] was 34.3%; in the assay on HeLa [2], 63.5%; in the assay on HeLa [4], 90%; with HeLa [6], 77%. Also, in [3], the IC50 turned out to be 500 µM.

For the origin of these results see ChEMBL document CHEMBL1124561, “Synthesis of acyclonucleoside hydroxamic acids as inhibitors of ribonucleotide reductase” (J Med Chem, 1989).
